{"source": "patent US4563451A", "about": "“Quinazolino-1,4-benzodiazepin-5,13-diones” (Merck & Co., Inc., priority 1985, dated 1986)", "note": "Where a SMILES comes first, the peptide text is derived from it. [ ]: non-standard residue; d: D form. The star is where a group is joined. sY = N[C@@H](Cc1ccc(OS(=O)(=O)O)cc1)C(=O)O; Cbz = O=C(OCc1ccccc1)*; Boc = CC(C)(C)OC(=O)*"}
{"target": "T1, CCK receptor (pancreas) (Rattus norvegicus, UniProt P30551)", "T1 construct": "The whole pancreas of a male Sprague-Dawley rat; from tissue; host or cells: whole pancreas of male Sprague-Dawley rat, washed membrane suspension", "T1 sequence (P30551 1-444)": "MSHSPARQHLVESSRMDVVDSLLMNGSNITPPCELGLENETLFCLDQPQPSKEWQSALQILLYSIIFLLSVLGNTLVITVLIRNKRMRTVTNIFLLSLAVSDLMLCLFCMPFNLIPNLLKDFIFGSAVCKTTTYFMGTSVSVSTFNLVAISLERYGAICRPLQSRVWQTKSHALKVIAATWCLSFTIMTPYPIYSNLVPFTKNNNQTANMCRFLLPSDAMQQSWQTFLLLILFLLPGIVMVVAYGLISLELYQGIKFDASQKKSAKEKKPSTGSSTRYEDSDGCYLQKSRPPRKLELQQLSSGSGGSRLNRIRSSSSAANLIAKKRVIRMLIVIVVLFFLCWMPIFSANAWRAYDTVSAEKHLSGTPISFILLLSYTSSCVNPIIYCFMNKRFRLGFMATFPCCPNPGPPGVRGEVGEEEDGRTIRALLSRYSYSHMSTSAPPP", "assay": "CCK receptor binding (pancreas) method; I-CCK-8 pancreas assay (CCK-antagonism)", "parameters": "species or system male Sprague-Dawley rat", "settings": "125I-CCK binding, rat pancreas membranes, 37° C., 30 minutes; read-out: Anti-CCK Activity IC50", "text": "(§1) Screening of the novel compounds according to the present invention to determine biological activity and obtain an IC50 value for them, in order to identify significant CCK-antagonism, may be accomplished using an ^125 I-CCK receptor binding assay and in vitro isolated tissue preparations. These tests involve the following:\n(§2) CCK receptor binding (pancreas) method\n(§3) CCK-33 is radiolabeled with ^125 I-Bolton Hunter reagent (2000 Ci/mmole), as described by Sankara et al. (J. Biol. Chem., 254, 9349-9351, 1979). Receptor binding is performed according to Innis and Snyder (Proc. Natl. Acad. Sci., 77, 6917-6921, 1980), with the minor modification of adding the additional protease inhibitors, phenyl-methane sulfonyl fluoride and o-phenanthroline, which have no effect on the ^125 I-CCK receptor binding assay.\n(§4) The whole pancreas of a male Sprague-Dawley rat (200-350 g), which has been sacrificed by decapitation, is dissected free of fat tissue and homogenized in 20 volumes of ice-cold 50 mM Tris HCl (pH 7.7 at 25° C.) with a Brinkman Polytron PT-10. The homogenates are centrifuged at 48,000 g for 10 minutes, then the resulting pellets are resuspended in Tris Buffer, centrifuged as above, and resuspended in 200 volumes of binding assay buffer (50 mM Tris HCl, pH 7.7 at 25° C., 5 mM dithiothreitol, 0.1 mM bacitracin, 1.2 mM phenylmethane sulfonyl fluoride and 0.5 mM o-phenanthroline).\n(§5) For the binding assay, 25 μl of buffer (for total binding), or unlabeled CCK-8 sulfate sufficient to give a final concentration of 1 μM of CCK-8 (for nonspecific binding), or the compounds of the formula of the compounds according to the instant invention (for determination of antagonism to ^125 I-CCK binding) and 25 μl of ^125 I-CCK-33 (30,000-40,000 cpm), are added to 450 μl of the membrane suspensions in microfuge tubes. All assays are run in duplicate or triplicate, and the reaction mixtures are incubated at 37° C. for 30 minutes and centrifuged in a Beckman Microfuge (4 minutes) immediately after adding 1 ml of ice-cold incubation buffer. The supernatant is aspirated and discarded, and the pellets are counted with a Beckman Gamma 5000.\n(§6) Activity Testing with I-CCK-8 Pancreas Assay\n(§7) The compounds of Examples 1-11 were tested as CCK-antagonists (pancreas assay) with the following results: […]", "units": {"IC50": "µM"}}
{"smiles": "CC(C)C[C@@H]1N[C@H]2N(C1=O)c1ccccc1[C@@]2(O)C[C@@H]1NC(=O)c2ccccc2N2C(=O)c3ccccc3NC12", "note": "(stereo partly drawn) [Example 1, 7,7a-dihydro-7-[(2,3,9,9Aα-tetrahydro-9α-hydroxy-2-(2-methylpropyl)-3-oxo-1H-imidazo(1,2-a)indol-9-yl)methyl]quinazolino(3,2-a)(1,4)benzazepin-5,13-(6H,7H)dione hydrate]", "IC50": 0.21}
{"smiles": "CC(=O)N1[C@H]2N(C(=O)[C@@H]1CC(C)C)c1ccccc1[C@@]2(O)C[C@@H]1NC(=O)c2ccccc2-n2c1nc1ccccc1c2=O", "note": "[Example 2, 7-[(1-acetyl-2,3,9,9Aα-tetrahydro-9α-hydroxy-2-(2-methylpropyl)-3-oxo-1H-imidazo(1,2-A)indol-9-yl)methyl]quinazolino(3,2-A)-1,4-benzodiazepin-5,13-(6H,7H)-dione]", "IC50": 22}
{"smiles": "CCN1[C@H]2N(C(=O)[C@@H]1CC(C)C)c1ccccc1[C@@]2(O)C[C@@H]1NC(=O)c2ccccc2N2C(=O)c3ccccc3NC12", "note": "(stereo partly drawn) [Example 3, 7-[(1-ethyl-2,3,9,9Aα-tetrahydro-9α-hydroxy-2-(2-methylpropyl)-3-oxo-1H-imidazo(1,2-A)indol-9-yl)methyl]-6,7,7A,8-tetrahydro-5H,13H-quinazolino-(3,2-A)-1,4-benzazepin-5H,13-dione hemihydrate]", "IC50": 0.35}
{"smiles": "CC(C)CC1C(=O)N2c3ccccc3C(O)(CC3NC(=O)c4ccccc4-n4c3nc3ccccc3c4=O)C2N1C(=O)OCc1ccccc1", "note": "(stereo not drawn) [Example 4]", "IC50": 5}
{"smiles": "CC(C)C[C@H]1C(=O)N2c3ccccc3[C@@](O)(C[C@@H]3NC(=O)c4ccccc4N4C(=O)c5ccccc5NC34)[C@H]2N1O", "note": "(stereo partly drawn) [Example 5, 7,7α-dihydro-7-[(2,3,9,9Aα-tetrahydro-1,9α-dihydroxy-2-(2-methylpropyl)-3-oxo-1H-imidazo-(1,2-A)-indol-9-yl)methyl]quinazolino(3,2-A)-1,4-benzodiazepin-5,13(6H,7H)-dione hydrate]", "IC50": 0.67}
{"smiles": "CC(C)CC1C(=O)N2c3ccccc3C(O)(CC3NC(=O)c4ccccc4-n4c3nc3ccccc3c4=O)C2N1CCCc1ccccc1", "note": "(stereo not drawn) [Example 6, 7-[1-(3-phenylpropyl)-2,3,9,9Aα-tetrahydro-9α-hydroxy-2-(2-methylpropyl)-3-oxo-1H-imidazo(1,2-A)indol-9-yl)methyl]-6,7,7A,8-tetrahydro-5H,13H-quinazolino(3,2-A)-1,4-benzazepin-5H,13-dione sesquihydrate]", "IC50": 0.19}
{"smiles": "CC(C)C[C@H]1C(=O)N2c3ccccc3[C@@](O)(C[C@@H]3NC(=O)c4ccccc4-n4c3nc3ccccc3c4=O)[C@H]2N1C(=O)[C@H](Cc1ccc(OCc2ccccc2)cc1)NC(=O)OC(C)(C)C", "note": "[Example 7, 7-{{1-[N-((1,1-dimethylethoxy)carbonyl)-o-phenylmethyltryosyl]-2,3,9,9Aα-tetrahydro-9α-hydroxy-2-(2-methylpropyl)-3-oxo-1H-imidazo(1,2-A)indol-9-yl}methyl}quinazolino(3,2-A)-1,4-benzodiazepin-5,13-(6H,7H)-dione]", "IC50": 100}
{"smiles": "CC(C)C[C@H]1C(=O)N2c3ccccc3[C@@](O)(C[C@@H]3NC(=O)c4ccccc4-n4c3nc3ccccc3c4=O)[C@H]2N1C(=O)[C@H](Cc1ccc(O)cc1)NC(=O)OC(C)(C)C", "note": "[Example 8, 7-{{1-[2-((1,1-dimethylethoxy)carbonyl)amino-3-(4-hydroxyphenyl)propanoyl]-2,3,9,9Aα-tetrahydro-9α-hydroxy-2-(2-methylpropyl)-3-oxo-1H-imidazo(1,2-A)indol-9-yl}methyl}quinazolino(3,2-A)-1,4-benzodiazepin-5,13-(6H,7H)-dione hemihydrate]", "IC50": 46}
{"smiles": "CC(C)C[C@H]1C(=O)N2c3ccccc3[C@@](O)(C[C@@H]3NC(=O)c4ccccc4-n4c3nc3ccccc3c4=O)[C@H]2N1C(=O)C(CCCCNC(=O)OCc1ccccc1)NC(=O)OC(C)(C)C", "note": "(stereo partly drawn) [Example 9, 7-{{1-[2-((1,1-dimethylethoxy)carbonyl)amino-6-(phenylmethyloxycarbonyl)aminohexanoyl]-2,3,9,9Aα-tetrahydro-9α-hydroxy-2-(2-methylpropyl)-3-oxo-1H-imidazo(1,2-A)indol-9-yl}methyl}quinazolino(3,2-A)-1,4-benzodiazepin-5,13-(6H,7H)-dione hydrate]", "IC50": 100}
{"smiles": "CC(C)C[C@H]1C(=O)N2c3ccccc3[C@@](O)(C[C@@H]3NC(=O)c4ccccc4-n4c3nc3ccccc3c4=O)[C@H]2N1C(=O)C(CCCNC(=O)OCc1ccccc1)NC(=O)OC(C)(C)C", "note": "(stereo partly drawn) [Example 10, 7-{{1-[2-((1,1-dimethylethoxy)carbonyl)amino-5-(phenylmethyloxycarbonyl)aminopentanoyl]-2,3,9,9Aα-tetrahydro-9α-hydroxy-2-(2-methylpropyl)-3-oxo-1H-imidazo(1,2-A)indol-9-yl}methyl}quinazolino(3,2-A)-1,4-benzodiazepin-5,13-(6H,7H)-dione]", "IC50": 4.3}
{"smiles": "CC(C)C[C@H]1C(=O)N2c3ccccc3[C@@](O)(C[C@@H]3NC(=O)c4ccccc4N4C(=O)c5ccccc5NC34)[C@H]2N1C(=O)C(CCCNC(=O)OCc1ccccc1)NC(=O)OC(C)(C)C", "note": "(stereo partly drawn) [Example 11, 7-{{1-[2-((1,1-dimethylethoxy)carbonyl)amino-5-(phenylmethyloxycarbonyl)aminopentanoyl]-2,3,9,9Aα-tetrahydro-9α-hydroxy-2-(2-methylpropyl)-3-oxo-1H-imidazo(1,2-A)indol-9-yl}methyl}-6,7,7A,8-tetrahydro-5H,13-quinazolino(3,2-A)-1,4-benzodiazepin-5H,13-dione hydrate]", "IC50": 1.3}
{"target": "T1, CCK receptor (pancreas)", "assay": "CCK receptor binding (pancreas) method; I-CCK-8 pancreas assay (CCK-antagonism)", "parameters": "species or system male Sprague-Dawley rat", "settings": "added protease inhibitor in the binding assay", "text": "as §1, §2, §3, §4, §5, §6, §7"}
{"smiles": "c1cnc2c(c1)ccc1cccnc12", "note": "[o-phenanthroline, reference compound]", "effect on the 125I-CCK receptor binding assay": "no effect"}
{"smiles": "O=S(=O)(F)Cc1ccccc1", "note": "[phenyl-methane sulfonyl fluoride, reference compound]", "effect on the 125I-CCK receptor binding assay": "no effect"}
{"tested_on": "CCK-receptor", "assay": "not given", "settings": "background; cited from earlier work"}
{"smiles": "CSCC[C@H](NC(=O)OC(C)(C)C)C(=O)N[C@@H](CC(=O)O)C(=O)N[C@@H](Cc1ccccc1)C(N)=O", "note": "[Boc--Met--Asp--Phe--NH2] (Boc-Met-Asp-Phe-NH2)", "CCK-antagonism (in words)": "can function as CCK-antagonists"}
{"smiles": "CSCC[C@H](NC(=O)[C@H](Cc1ccc(OS(=O)(=O)O)cc1)NC(=O)OCc1ccccc1)C(=O)NCC(=O)N[C@@H](Cc1c[nH]c2ccccc12)C(=O)N[C@@H](CCSC)C(=O)N[C@@H](CC(=O)O)C(N)=O", "note": "[Cbz--Tyr(SO3 H)--Met--Gly--Trp--Met--Asp--NH2] (Cbz-[sY]MGWMD-NH2)", "CCK-antagonism (in words)": "can function as CCK-antagonists"}
{"smiles": "CSCC[C@H](N)C(=O)N[C@@H](CC(=O)O)C(=O)N[C@@H](Cc1ccccc1)C(N)=O", "note": "[Met--Asp--Phe--NH2] (H-Met-Asp-Phe-NH2)", "CCK-antagonism (in words)": "can function as CCK-antagonists"}
{"smiles": "CCCC(=O)Nc1nc2c(ncn2[C@@H]2O[C@@H]3COP(=O)(O)O[C@H]3[C@H]2OC(=O)CCC)c(=O)[nH]1", "note": "[dibutyryl cyclic GMP]", "CCK-antagonism (in words)": "the most potent"}
{"smiles": "CC(C)C[C@@H]1N[C@H]2N(C1=O)c1ccccc1[C@@]2(O)C[C@@H]1NC(=O)c2ccccc2-n2c1nc1ccccc1c2=O", "note": "[formula (I), 7β-((2,3,9,9Aα-tetrahydro-9α-hydroxy-2-(2-methylpropyl)-3-oxo-1H-imidazo-(1,2-A)-indol-9-yl)-methyl)quinazolino(3,2-A)(1,4)benzodiazepin-5,13-(6H,7H)dione]", "CCK-antagonism (in words)": "has been shown to be a CCK-antagonist"}
